Results taken from patent US20130005988A1, “2-AZETIDINEMETHANEAMINES AND 2-PYRROLIDINEMETHANEAMINES AS TAAR-LIGANDS” (priority 2007, published 2013).

Key:
TAAR1 [1] = biological target: T1, TAAR1 (Mus musculus, UniProt Q923Y8); assay: Radioligand Kd used in the TAAR1 binding assay; details: radioligand in the TAAR1 membrane binding assay; species not stated; read-out: calculated Kd value
T1 construct: expressed in transfected cells; host or cells: HEK293 (ATCC #CRL-1573), stably transfected with pIRESneo2 expression plasmid
T1 sequence (Q923Y8 whole entry): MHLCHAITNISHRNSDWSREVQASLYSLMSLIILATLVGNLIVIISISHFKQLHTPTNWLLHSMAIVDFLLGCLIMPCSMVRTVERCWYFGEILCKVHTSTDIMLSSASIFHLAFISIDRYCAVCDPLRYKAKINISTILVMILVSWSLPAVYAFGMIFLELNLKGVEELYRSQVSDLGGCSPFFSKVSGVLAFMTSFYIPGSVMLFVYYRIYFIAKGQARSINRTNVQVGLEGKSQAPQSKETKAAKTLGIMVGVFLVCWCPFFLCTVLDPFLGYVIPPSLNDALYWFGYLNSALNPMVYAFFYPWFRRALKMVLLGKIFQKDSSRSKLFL
Description: (§1) For the construction of expression plasmids the coding sequences of human, rat and mouse TAAR 1 were amplified from genomic DNA essentially as described by Lindemann et al.. The Expand High Fidelity PCR System (Roche Diagnostics) was used with 1.5 mM Mg^2+ and purified PCR products were cloned into pCR2.1-TOPO cloning vector (Invitrogen) following the instructions of the manufacturer. PCR products were subcloned into the pIRESneo2 vector (BD Clontech, Palo Alto, Calif.), and expression vectors were sequence verified before introduction in cell lines.
Cells at confluence were rinsed with ice-cold phosphate buffered saline without Ca^2+ and Mg^2+ containing 10 mM EDTA and pelleted by centrifugation at 1000 rpm for 5 min at 4° C. The pellet was then washed twice with ice-cold phosphate buffered saline and cell pellet was frozen immediately by immersion in liquid nitrogen and stored until use at −80° C. […] Protein concentration was determined by the method of Pierce (Rockford, Ill.). […]
Binding assay was performed at 4° C. in a final volume of 1 ml, and with an incubation time of 30 min. […] The tubes and filters were then washed 3 times with 1 ml aliquots of cold buffer B. Filters were not dried and soaked in Ultima gold (45 μl/well, Packard Instrument Company) and bound radioactivity was counted by a TopCount Microplate Scintillation Counter (Packard Instrument Company).

TAAR1 [2] = biological target: T1, TAAR1; assay: Radioligand binding on membranes of HEK293 cells stably expressing TAAR1; details: radioligand [3H]-rac-2-(1,2,3,4-tetrahydro-1-naphthyl)-2-imidazoline at 60 nM, 4° C., 30 min
Description: as §1
HEK293 cells (ATCC #CRL-1573) were cultured essentially as described Lindemann et al. (2005). For the generation of stably transfected cell lines HEK293 cells were transfected with the pIRESneo2 expression plasmids containing the TAAR coding sequences (described above) with Lipofectamine 2000 (Invitrogen) according to the instructions of the manufacturer, and 24 hrs post transfection the culture medium was supplemented with 1 mg/ml G418 (Sigma, Buchs, Switzerland). After a culture period of about 10 d clones were isolated, expanded and tested for responsiveness to trace amines (all compounds purchased from Sigma) with the cAMP Biotrak Enzyme immunoassay (EIA) System (Amersham) following the non-acetylation EIA procedure provided by the manufacturer.
Cells at confluence were rinsed with ice-cold phosphate buffered saline without Ca^2+ and Mg^2+ containing 10 mM EDTA and pelleted by centrifugation at 1000 rpm for 5 min at 4° C. The pellet was then washed twice with ice-cold phosphate buffered saline and cell pellet was frozen immediately by immersion in liquid nitrogen and stored until use at −80° C. Cell pellet was then suspended in 20 ml HEPES-NaOH (20 mM), pH 7.4 containing 10 mM EDTA, and homogenized with a Polytron (PT 3000, Kinematica) at 10,000 rpm for 10 s. The homogenate was centrifuged at 48,000×g for 30 min at 4° C. and the pellet resuspended in 20 ml HEPES-NaOH (20 mM), pH 7.4 containing 0.1 mM EDTA (buffer A), and homogenized with a Polytron at 10,000 rpm for 10 s. The homogenate was then centrifuged at 48,000×g for 30 min at 4° C. and the pellet resuspended in 20 ml buffer A, and homogenized with a Polytron at 10,000 rpm for 10 s. Protein concentration was determined by the method of Pierce (Rockford, Ill.). The homogenate was then centrifuged at 48,000×g for 10 min at 4° C., resuspended in HEPES-NaOH (20 mM), pH 7.0 including MgCl2 (10 mM) and […] homogenized with a Polytron at 10,000 rpm for 10 s.
Binding assay was performed at 4° C. in a final volume of 1 ml, and with an incubation time of 30 min. The radioligand [^3H]-rac-2-(1,2,3,4-tetrahydro-1-naphthyl)-2-imidazoline was used at a concentration equal to the calculated Kd value of 60 nM to give a bound at around 0.1% of the total added radioligand concentration, and a specific binding which represented approximately 70-80% of the total binding. Non-specific binding was defined as the amount of [^3H]-rac-2-(1,2,3,4-tetrahydro-1-naphthyl)-2-imidazoline bound in the presence of the appropriate unlabelled ligand (10 μM). Competing ligands were tested in a wide range of concentrations (10 pM-30 μM). […] Each experiment was performed in duplicate. All incubations were terminated by rapid filtration through UniFilter-96 plates (Packard Instrument Company) and glass filter GF/C, pre-soaked for at least 2 h in polyethylenimine 0.3%, and using a Filtermate 96 Cell Harvester (Packard Instrument Company). The tubes and filters were then washed 3 times with 1 ml aliquots of cold buffer B. Filters were not dried and soaked in Ultima gold (45 μl/well, Packard Instrument Company) and bound radioactivity was counted by a TopCount Microplate Scintillation Counter (Packard Instrument Company).

Row | Ki (TAAR1 [2]) [µM] | Structure (SMILES) | Kd (TAAR1 [1]) [µM]
1 |  | c1ccc2c(c1)CCCC2C1=NCCN1 (racemic) [[^3H]-rac-2-(1,2,3,4-tetrahydro-1-naphthyl)-2-imidazoline] | 0.06
2 | 0.0044 | CCN(C[C@H]1CCCN1)c1cccc(Oc2ccccc2)c1 [Example 3, Ethyl-(3-phenoxy-phenyl)-(R)-1-pyrrolidin-2-ylmethyl-amine] | 
3 | 0.0172 | CCN(C[C@@H]1CCCN1)c1cccc(Oc2ccccc2)c1 [Example 4, Ethyl-(3-phenoxy-phenyl)-(S)-1-pyrrolidin-2-ylmethyl-amine] | 
4 | 0.0028 | CCN(C[C@@H]1CCCN1)c1ccc(Cl)c(Cl)c1 [Example 6, (3,4-Dichloro-phenyl)-ethyl-(S)-1-pyrrolidin-2-ylmethyl-amine] | 
5 | 0.0859 | COc1cc(N(C)C[C@@H]2CCCN2)ccc1Cl [Example 8, (4-Chloro-3-methoxy-phenyl)-methyl-(8)-1-pyrrolidin-2-ylmethyl-amine] | 
6 | 0.0092 | CCN(C[C@@H]1CCCN1)c1ccc(Cl)c(OC)c1 [Example 9, (4-Chloro-3-methoxy-phenyl)-ethyl-(8)-1-pyrrolidin-2-ylmethyl-amine] | 
7 | 0.0131 | CCN(C[C@@H]1CCCN1)c1ccc(Cl)cc1 [Example 11, (4-Chloro-phenyl)-ethyl-(8)-1-pyrrolidin-2-ylmethyl-amine] | 
8 | 0.0213 | COc1cc(N(C[C@@H]2CCCN2)C(C)C)ccc1Cl [Example 12, (4-Chloro-3-methoxy-phenyl)-isopropyl-(S)-1-pyrrolidin-2-ylmethyl-amine] | 
9 | 0.005 | CC(C)N(C[C@@H]1CCCN1)c1ccc(Cl)c(Cl)c1 [Example 13, (3,4-Dichloro-phenyl)-isopropyl-(S)-1-pyrrolidin-2-ylmethyl-amine] | 
10 | 0.0056 | CCN(C[C@H]1CCCN1)c1ccc(Cl)cc1 [Example 16, (4-Chloro-phenyl)-ethyl-(R)-1-pyrrolidin-2-ylmethyl-amine] | 
11 | 0.0092 | CCN(C[C@@H]1CCN1)c1ccccc1 [Example 18, (S)-1-Azetidin-2-ylmethyl-ethyl-phenyl-amine] | 
12 | 0.0137 | CCN(C[C@@H]1CCN1)c1cccc(OC)c1 [Example 19, (S)-1-Azetidin-2-ylmethyl-ethyl-(3-methoxy-phenyl)-amine] | 
13 | 0.0047 | CCN(C[C@@H]1CCN1)c1cccc(Br)c1 [Example 20, (S)-1-Azetidin-2-ylmethyl-(3-bromo-phenyl)-ethyl-amine] | 
14 | 0.021 | CN(C[C@@H]1CCN1)c1ccc(Cl)cc1 [Example 21, (S)-1-Azetidin-2-ylmethyl-(4-chloro-phenyl)-methyl-amine] | 
15 | 0.041 | CC(C)N(C[C@@H]1CCN1)c1ccc(Cl)cc1 [Example 22, (S)-1-Azetidin-2-ylmethyl-(4-chloro-phenyl)-isopropyl-amine] | 
16 | 0.0107 | Clc1ccc(N(Cc2ccccc2)C[C@@H]2CCN2)cc1 [Example 23, (S)-1-Azetidin-2-ylmethyl-benzyl-(4-chloro-phenyl)-amine] | 
